Assay results reported in US11352350B2, “IRAK degraders and uses thereof” (Kymera Therapeutics, Inc., priority 2018, dated 2022).
Read-outs that look alike come from different tables or passages of the source.

What was measured:
IRAK4 [1] = biological target: T1, IRAK4 (Homo sapiens (Human), UniProt Q9NWZ3); assay: hPBMC IRAK4 degradation flow assay; assay type: cell-based; settings: hPBMC monocyte
Description: hPBMC IRAK4 degradation flow assay. Frozen PBMCs were thawed into RPMI with 10% FBS and allowed to recover. On the same day as thawed, PBMCs were plated in 96 well plate, 90 uL per well. Compound plates were prepared and a 10 point, 5-fold dilution was performed with a final DMSO concentration of 0.1%. Compound 10 μL per well was added, sealed and incubated at 37° C., 5% C02 for 20 hours (for 4 hour treatment, compounds were prepared and added the following day). […] Cells were spun down and washed two times with PBS/0.5% BSA, aspirated to pellet and placed into −80° C. freezer until further processing for flow. On the flow run day, PBMC plates were thawed and samples were transferred to PCR plates. The pre-perm staining cocktail (CD3 Ax488/CD8 BUV805/CD14 BUV395/CD16/56 BV711/CD19 BV785) was added to samples and incubated for 30 minutes at room temperature. Samples were washed two times and permeabilized with methanol for 10 minutes at 4° C. […] Samples were washed two times with PBS/BSA and run on a BD LSRFortessa. Mononuclear cells are gated by SSCH/FSCH and single cells. Monocytes are then gated through CD14 positive gate and lymphocytes are gated through CD14 negative gate. To determine absolute DC50s and max degradation values, MFI values were normalized to DMSO max and 20 hour 10 μM min control. Twenty hour dose curves were calculated using a 4 parameter logistic regression curve fit, no constraints (Top doses were removed if hook effects were observed and the bottom was constrained to 0).

IRAK4 [2] = biological target: T1, IRAK4; assay: IRAK4 MSD degradation in OCI-LY10; assay type: cell-based
Procedure, shortened: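 OCI-LY10 cells treated with 8-point 1:3 dilutions (top 1 to 10 μM final) for 4 to 24 h at 37° C. Lysate IRAK4 measured by MSD sandwich immunoassay (2H9 capture, Y279 detection, SULFO-TAG anti-rabbit). DC50 from three-parameter logistic fit.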

OCI-LY10 = assay: CTG Cell Viability Assay - OCI-LY10; assay type: cell-based, human; settings: Homo sapiens, OCI-LY10, 4 days, read-out: CTG Cell Viability Assay - OCI-LY10: Average external-IC50
Procedure, shortened: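 OCI-LY10 cells exposed to 9-dose, 1:3 dilutions from 10 μM top (0.2% DMSO) for 4 days at 37° C, 5% CO2. Viability by CellTiter-Glo luminescence; IC50 from three-parameter logistic fit.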

IL-6 = IL-6 secretion in hPBMC using R848 stimulation; assay type: cell-based, human; settings: Homo sapiens, 20 h
[3] = 20 hrs, read-out: IRAK4 degradation in hPBMC monocyte: DC50
[4] = OCI-LY10, 4 hrs, read-out: IRAK4 MSD degradation in OCI-LY10 at 4 hrs: DC50
[5] = 20 hr, flow assay, read-out: IRAK4 degradation in hPBMC monocyte at 20 hr: Average external Abs DC50
[6] = OCI-LY10, 4 hrs, MSD, read-out: IRAK4 MSD degradation in OCI-LY10 at 4 hrs: Average external-Abs DC50
[7] = OCI-LY10, 24 hrs, MSD, read-out: IRAK4 MSD degradation in OCI-LY10 at 24 hrs: Average external-Abs DC50

T1 sequence (Q9NWZ3 whole entry): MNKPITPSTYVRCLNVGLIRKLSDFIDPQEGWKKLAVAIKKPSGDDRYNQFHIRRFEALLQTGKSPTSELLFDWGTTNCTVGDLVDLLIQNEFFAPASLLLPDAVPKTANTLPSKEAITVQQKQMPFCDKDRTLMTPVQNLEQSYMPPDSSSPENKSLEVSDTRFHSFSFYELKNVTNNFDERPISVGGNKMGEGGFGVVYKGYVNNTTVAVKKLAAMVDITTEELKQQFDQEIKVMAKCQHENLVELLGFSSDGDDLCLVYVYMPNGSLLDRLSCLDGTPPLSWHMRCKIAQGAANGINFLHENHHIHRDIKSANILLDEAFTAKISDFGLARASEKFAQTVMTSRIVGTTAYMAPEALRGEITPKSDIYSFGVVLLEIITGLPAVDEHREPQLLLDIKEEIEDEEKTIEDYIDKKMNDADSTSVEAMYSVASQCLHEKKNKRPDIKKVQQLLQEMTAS

SMILES	DC50 (IRAK4 [1]; [3])	DC50 (IRAK4 [2]; [4])	IC50 (OCI-LY10; OCI-Ly10, 96 h)	DC50 (IRAK4 [1]; [5])	other results
O=C1CCC(n2c3cccc(CCCN4CC5(CCN(C(=O)[C@H]6CC[C@H](n7cc(NC(=O)c8cnn9ccc(N%10C[C@H]%11C[C@@H]%10CO%11)nc89)c(C(F)F)n7)CC6)CC5)C4)c3c3cccnc32)C(=O)N1 (stereo partly drawn) [I-445]	< 10 nM	10 to 100 nM	> 1000 nM	–	–
Cn1c(=O)n(C2CCC(=O)NC2=O)c2ccc(C#CCOC3CCN(C[C@H]4CC[C@H](n5cc(NC(=O)c6cnn7ccc(N8C[C@H]9C[C@@H]8CO9)nc67)c(C(F)F)n5)CC4)CC3)cc21 (stereo partly drawn) [I-483]	–	–	–	–	IC50 (IL-6; read-out: IL-6 Secretion in hPBMC, R848 as stim, t = 20 h: IC50): 1 to 10 nM; IC50 (OCI-LY10; 96 h): > 1000 nM
CN(C[C@H]1CC[C@H](n2cc3cc(NC(=O)c4cccc(C(F)(F)F)n4)c(C(C)(C)O)cc3n2)CC1)C1CCC2(CC1)CC(CNc1cccc3c1C(=O)N(C1CCC(=O)NC1=O)C3=O)C2 (stereo partly drawn) [I-331]	–	–	< 50 nM	10 to 100 nM	DC50 (IRAK4 [2]; [6]): 10 to 100 nM; DC50 (IRAK4 [2]; [7]): < 10 nM
Cn1c(=O)n(C2CCC(=O)NC2=O)c2cccc(CCCN3CCOC4(CCN(C(=O)[C@H]5CC[C@H](n6cc(NC(=O)c7cnn8ccc(N9C[C@H]%10C[C@@H]9CO%10)nc78)c(C(F)F)n6)CC5)CC4)C3)c21 (stereo partly drawn) [I-431]	–	–	–	< 10 nM	IC50 (IL-6; hPBMC, R848 as stim, t = 20 h): < 1 nM
O=C1CCC(n2c3cccc(CCCN4CC5(CCN(C[C@H]6CC[C@H](n7cc(NC(=O)c8cnn9ccc(N%10C[C@H]%11C[C@@H]%10CO%11)nc89)c(C(F)F)n7)CC6)CC5)C4)c3c3cccnc32)C(=O)N1 (stereo partly drawn) [I-519]	100 to 1000 nM	10 to 100 nM	100 to 500 nM	–	–
C[C@H](CCc1cccc2c1n(C)c(=O)n2C1CCC(=O)NC1=O)OC1CCN(C[C@H]2CC[C@H](n3cc(NC(=O)c4cnn5ccc(N6C[C@H]7C[C@@H]6CO7)nc45)c(C(F)F)n3)CC2)CC1 (stereo partly drawn) [I-557]	< 10 nM	< 10 nM	> 1000 nM	–	–
Cn1c(=O)n(C2CCC(=O)NC2=O)c2cccc(CCCN3CC4CN(C(=O)[C@H]5CC[C@H](n6cc(NC(=O)c7cnn8ccc(N9C[C@H]%10C[C@@H]9CO%10)nc78)c(C(F)F)n6)CC5)CC4C3)c21 (stereo partly drawn) [I-449]	< 10 nM	< 10 nM	> 1000 nM	–	–
Cn1c(=O)n(C2CCC(=O)NC2=O)c2cccc(CCCN3CC4(CCN(C(=O)[C@H]5CC[C@H](n6cc(NC(=O)c7cnn8cccnc78)c(N7CCOCC7)n6)CC5)CC4)C3)c21 (stereo partly drawn) [I-494]	100 to 1000 nM	100 to 1000 nM	> 1000 nM	–	–
C[C@@H](C#Cc1cccc2c1n(C)c(=O)n2C1CCC(=O)NC1=O)OC1CCN(C[C@H]2CC[C@H](n3cc(NC(=O)c4cnn5ccc(N6C[C@H]7C[C@@H]6CO7)nc45)c(C(F)F)n3)CC2)CC1 (stereo partly drawn) [I-544]	100 to 1000 nM	10 to 100 nM	> 1000 nM	–	–
Cn1c(=O)n(C2CCC(=O)NC2=O)c2cccc(CCC(=O)N3CC4(CCN(C[C@H]5CC[C@H](n6cc(NC(=O)c7cnn8ccc(N9C[C@H]%10C[C@@H]9CO%10)nc78)c(C(F)F)n6)CC5)CC4)C3)c21 (stereo partly drawn) [I-410]	–	–	> 1000 nM	< 10 nM	DC50 (IRAK4 [2]; [6]): 10 to 100 nM
CC(C)(O)c1cc2nn([C@H]3CC[C@H](CN4CCC5(CC4)CC(Nc4cccc6c4C(=O)N(C4CCC(=O)NC4=O)C6=O)C5)CC3)cc2cc1NC(=O)c1cccc(C(F)(F)F)n1 (stereo partly drawn) [I-326]	–	–	< 50 nM	< 10 nM	DC50 (IRAK4 [2]; [6]): < 10 nM; DC50 (IRAK4 [2]; [7]): < 10 nM
Cn1c(=O)n(C2CCC(=O)NC2=O)c2cccc(CCCOC[C@H]3CN(C[C@H]4CC[C@H](n5cc(NC(=O)c6cnn7ccc(N8CCOCC8)nc67)c(C(F)F)n5)CC4)CCO3)c21 (stereo partly drawn) [I-430]	–	–	–	< 10 nM	IC50 (IL-6; hPBMC, R848 as stim, t = 20 h): 1 to 10 nM
CN(CCCO[C@H]1C[C@H](Nc2cccc3c2C(=O)N(C2CCC(=O)NC2=O)C3=O)C1)C[C@H]1CC[C@H](n2cc(NC(=O)c3cnn4ccc(N5C[C@H]6C[C@@H]5CO6)nc34)c(C(F)F)n2)CC1 (stereo partly drawn) [I-444]	< 10 nM	100 to 1000 nM	< 50 nM	–	DC50 (IRAK4 [2]; OCI-LY10, 24 hrs, read-out: IRAK4 MSD degradation in OCI-LY10 at 24 hrs: DC50): < 10 nM
O=C1CCC(N2C(=O)c3cccc(NCCCOCC4CCN(C[C@H]5CC[C@H](n6cc7cc(NC(=O)c8cccc(C(F)(F)F)n8)c(C(F)F)cc7n6)CC5)CC4)c3C2=O)C(=O)N1 (stereo partly drawn) [I-327]	–	–	500 to 1000 nM	10 to 100 nM	DC50 (IRAK4 [2]; [6]): 10 to 100 nM; DC50 (IRAK4 [2]; [7]): 10 to 100 nM
Cn1c(=O)n(C2CCC(=O)NC2=O)c2ccc(CCCN3CC4(CCN(C(=O)c5ccc(C6N=C(NC(=O)c7cnn8ccc(N9C[C@H]%10C[C@@H]9CO%10)nc78)C(C(F)F)=N6)cc5)CC4)C3)cc21 (stereo partly drawn) [I-433]	–	–	–	< 10 nM	IC50 (IL-6; hPBMC, R848 as stim, t = 20 h): < 1 nM
Cn1c(=O)n(C2CCC(=O)NC2=O)c2cccc(CCCC3CCN(C[C@H]4CC[C@H](n5cc(NC(=O)c6cnn7ccc(N8CCCOCC8)nc67)c(C(F)F)n5)CC4)CC3)c21 (stereo partly drawn) [I-524]	< 10 nM	< 10 nM	> 1000 nM	–	–
Cn1c(=O)n(C2CCC(=O)NC2=O)c2cccc(CCCN3CCOC4(CCN(C[C@H]5CC[C@H](n6cc(NC(=O)c7cnn8ccc(N9C[C@H]%10C[C@@H]9CO%10)nc78)c(C(F)F)n6)CC5)CC4)C3)c21 (stereo partly drawn) [I-434]	–	–	–	< 10 nM	IC50 (IL-6; hPBMC, R848 as stim, t = 20 h): < 1 nM
Cn1c(=O)n(C2CCC(=O)NC2=O)c2cccc(CCCOC3CCN(CCCCn4ncc(NC(=O)c5cnn6ccc(N7CCOCC7)nc56)c4C(F)F)CC3)c21 (stereo not drawn) [I-488]	100 to 1000 nM	100 to 1000 nM	> 1000 nM	–	–
CN(CCCOCCCNc1cccc2c1C(=O)N(C1CCC(=O)NC1=O)C2=O)C[C@H]1CC[C@H](n2cc3cc(NC(=O)c4cccc(C(F)(F)F)n4)c(C(C)(C)O)cc3n2)CC1 (stereo partly drawn) [I-333]	–	–	100 to 500 nM	< 10 nM	DC50 (IRAK4 [2]; [6]): 10 to 100 nM; DC50 (IRAK4 [2]; [7]): 10 to 100 nM
Cn1c(=O)n(C2CCC(=O)NC2=O)c2cccc(C#CCC3CCN(C[C@H]4CC[C@H](n5cc(NC(=O)c6cnn7ccc(N8CCCOCC8)nc67)c(C(F)F)n5)CC4)CC3)c21 (stereo partly drawn) [I-523]	< 10 nM	< 10 nM	> 1000 nM	–	–
Cn1c(=O)n(C2CCC(=O)NC2=O)c2cccc(CCCOC3CCN(C[C@H]4CC[C@H](n5cc(NC(=O)c6cnn7ccc(N8C[C@H]9CC[C@@H](C8)O9)nc67)c(C(F)F)n5)CC4)CC3)c21 (stereo partly drawn) [I-521]	< 10 nM	10 to 100 nM	> 1000 nM	–	–
Cn1c(=O)n(C2CCC(=O)NC2=O)c2cccc(CC3CCN(c4ccc(CN5CCC(n6cc(NC(=O)c7cnn8ccc(N9C[C@H]%10C[C@@H]9CO%10)nc78)c(C(F)F)n6)CC5)cc4)CC3)c21 (stereo partly drawn) [I-520]	< 10 nM	10 to 100 nM	> 1000 nM	–	–
Cn1c(=O)n(C2CCC(=O)NC2=O)c2cccc(CCCC3CCN(Cc4ccc(C5N=C(NC(=O)c6cnn7ccc(N8C[C@H]9C[C@@H]8CO9)nc67)C(C(F)F)=N5)cc4)CC3)c21 (stereo partly drawn) [I-428]	–	–	–	< 10 nM	IC50 (IL-6; hPBMC, R848 as stim, t = 20 h): 1 to 10 nM
Cn1c(=O)n(C2CCC(=O)NC2=O)c2cccc(C#CCCCOC[C@H]3CC[C@H](n4cc(NC(=O)c5cnn6ccc(N7C[C@H]8C[C@@H]7CO8)nc56)c(C(F)F)n4)CC3)c21 (stereo partly drawn) [I-446]	–	–	–	–	IC50 (IL-6; hPBMC, R848 as stim, t = 20 h): 10 to 100 nM
Cn1c(=O)n(C2CCC(=O)NC2=O)c2cccc(CCCN3CC4(CCN(C(=O)[C@H]5CC[C@H](n6cc(NC(=O)c7cnn8ccc(N9C[C@H]%10C[C@@H]9CO%10)nc78)c(C(F)F)n6)CC5)CC4)C3)c21 (stereo partly drawn) [I-407]	–	–	> 1000 nM	< 10 nM	DC50 (IRAK4 [2]; [6]): < 10 nM
Cn1c(=O)n(C2CCC(=O)NC2=O)c2cccc(C#CCOC3CCN(C[C@H]4CC[C@H](n5cc(NC(=O)c6cnn7ccc(N8CCCOCC8)nc67)c(C(F)F)n5)CC4)CC3)c21 (stereo partly drawn) [I-522]	< 10 nM	< 10 nM	100 to 500 nM	–	–
Cn1c(=O)n(C2CCC(=O)NC2=O)c2ccc(C#CCCCNC[C@H]3CC[C@H](n4cc(NC(=O)c5cnn6ccc(N7C[C@H]8C[C@@H]7CO8)nc56)c(C(F)F)n4)CC3)cc21 (stereo in doubt) [I-512, N-[3-(difluoromethyl)-1-[4-[[5-[1-(2,6-dioxo-3-piperidyl)-3-methyl-2-oxo-benzimidazol-5-yl]pent-4-ynylamino]methyl]cyclohexyl]pyrazol-4-yl]-5-(2-oxa-5-azabicyclo[2.2.1]heptan-5-yl)pyrazolo[1,5-a]pyrimidine-3-carboxamide]	100 to 1000 nM	> 1000 nM	> 1000 nM	–	–
